# From patent US20230364079A1, “COMPOUND AS BRAIN-PERMEABLE BTK OR HER2 INHIBITOR, PREPARATION METHOD THEREFOR, AND USE THEREOF” (CHENGDU HYPERWAY PHARMACEUTICALS CO., LTD., priority 2020, published 2023)
# Molecular target: BTK wild-type kinase (Homo sapiens (Human), UniProt Q06187)
# Assay: BTK kinase activity inhibition test in vitro (Caliper EZ Reader)
# Format: biochemical
# Description: In the tests on the activity of inhibiting BTK and HER2 kinase in vitro in the examples of the present disclosure, powder of the compound was dissolved in 100% DMSO to prepare a 10 mM stock solution and stored at-20° C. in the dark. […] In addition, the compounds were subjected to experiments such as liver microsome metabolic stability, rat PK, rat brain penetration rate, and drug efficacy model in the examples of the present disclosure.
# Compound powders were dissolved in 100% DMSO to make 10 mM stock solutions, which were stored at -20° C. in the dark.
# 2: Kinase Reaction Process
# (1) Preparation of 1 × Kinase buffer.
# (5) After centrifugation at 1000 rpm for 30 seconds, the reaction plate was shaken to mix well and incubated at room temperature for 10 min.
# (6) A 5/3-fold final concentration of a mixed solution of ATP and Kinase substrate 2 was prepared with 1 × Kinase buffer.
# (7) 15 µL of the mixed solution of ATP and substrate with 5/3-fold final concentration was added to start the reaction.
# (8) The 384-well plate was centrifuged at 1000 rpm for 30 seconds, shaken to mix well, and incubated at room temperature for 10 min.
# (9) 30 µL of a stop solution was added to stop the kinase reaction, and after centrifugation at 1000 rpm for 30 seconds, the plate was shaken to mix well;
# (10) The conversion rate was read with Caliper EZ Reader.
# where Conversion%_sample indicates the conversion rate reading of the sample; Conversion%_min is the average reading of the negative control wells, representing the conversion rate reading of the wells without enzyme activity; Conversion%_max is the average reading of the ratio of the positive control wells, representing the conversion rate reading of the wells without compound inhibition.
# Dose-Response Curve Fitting
# With the log value of the concentration as the X-axis, and the percentage inhibition rate as the Y-axis, the dose-effect curve was fitted using the log(inhibitor) vs. response-Variable slope of the analysis software GraphPad Prism 5, so as to determine the IC50 value of each compound on the enzyme activity.
# The calculation formula was: […]
# Chain of BTK wild-type kinase (Q06187 whole entry): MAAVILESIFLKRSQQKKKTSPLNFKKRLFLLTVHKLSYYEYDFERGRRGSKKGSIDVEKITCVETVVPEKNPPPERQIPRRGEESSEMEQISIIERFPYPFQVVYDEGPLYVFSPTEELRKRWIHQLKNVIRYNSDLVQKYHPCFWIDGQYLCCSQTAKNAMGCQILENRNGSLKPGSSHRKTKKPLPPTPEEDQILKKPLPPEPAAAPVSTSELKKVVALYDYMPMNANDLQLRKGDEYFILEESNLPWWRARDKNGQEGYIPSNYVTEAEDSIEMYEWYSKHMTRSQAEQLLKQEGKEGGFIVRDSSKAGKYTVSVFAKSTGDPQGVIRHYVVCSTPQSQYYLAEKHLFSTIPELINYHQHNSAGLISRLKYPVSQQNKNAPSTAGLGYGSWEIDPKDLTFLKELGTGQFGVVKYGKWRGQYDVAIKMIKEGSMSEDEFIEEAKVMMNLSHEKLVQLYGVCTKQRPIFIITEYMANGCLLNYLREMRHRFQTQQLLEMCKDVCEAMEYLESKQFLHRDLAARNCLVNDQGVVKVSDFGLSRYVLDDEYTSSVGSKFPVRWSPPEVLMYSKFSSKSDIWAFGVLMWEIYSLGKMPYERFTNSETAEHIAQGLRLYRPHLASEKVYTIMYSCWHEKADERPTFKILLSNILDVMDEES
row,Compound,IC50
1,Nc1nccn2c(C3CCC(CO)OC3)nc(-c3ccc(Oc4cccc(OCC5CC5)c4F)cc3)c12 (stereo not shown) [Compound 23],100 to 1000 nM
2,CNC(=O)c1cccc(Oc2ccc(-c3nc(C4CCC(CO)OC4)n4ccnc(N)c34)cc2)c1F (stereo not shown) [Compound 28],20 to 100 nM
3,Cc1cc(NC(=O)c2ccc(C3CC3)cc2F)c(F)cc1-c1nc(C2CCC(CO)OC2)n2ccnc(N)c12 (stereo not shown) [Compound 31],> 1000 nM
4,COc1ccccc1C(=O)NCc1ccc(-c2nc(C3CCC(CO)OC3)n3ccnc(N)c23)cc1 (stereo not shown) [Compound 33],20 to 100 nM
5,Nc1nccn2c(C34COC(CO)(C3)C4)nc(-c3ccc(C(=O)Nc4ccccn4)cc3)c12 [Compound 42],20 to 100 nM
6,Nc1nccn2c(C34COC(CO)(C3)C4)nc(-c3ccc(C(=O)Nc4ccccn4)cc3F)c12 [Compound 43],20 to 100 nM
7,Nc1ncc(Cl)n2c(C34COC(CO)(C3)C4)nc(-c3ccc(C(=O)Nc4ccccn4)cc3F)c12 [Compound 44],20 to 100 nM
8,Nc1nccn2c(C3CCC(CO)OC3)nc(-c3ccc(NC(=O)c4ccc(C5CC5)cc4F)cc3)c12 (stereo not shown) [Compound 46],100 to 1000 nM
9,CC(N)(c1ccccc1)c1ccc(-c2nc(C3CCC(CO)OC3)n3ccnc(N)c23)cc1 (stereo not shown) [Compound 47],100 to 1000 nM
10,Nc1nccn2c(C3CCC(CO)OC3)nc(-c3ccc(Nc4ccccc4)cc3)c12 (stereo not shown) [Compound 48],20 to 100 nM
11,C[C@](N)(c1ccc(F)cc1)c1cnc(-c2nc(C3CCC(CO)OC3)n3ccnc(N)c23)nc1 (stereo partly shown) [Compound 49],> 1000 nM
12,COc1cccc(Oc2ccc(-c3nc(C4CCC(C5(O)CC5)OC4)n4ccnc(N)c34)cc2)c1F (stereo not shown) [Compound 50],20 to 100 nM
13,COc1cccc(Oc2ccc(-c3nc(C4CCC(C(C)(C)O)OC4)n4ccnc(N)c34)cc2)c1F (stereo not shown) [Compound 51],20 to 100 nM
14,Nc1ncnc2c1c(-c1ccc(Oc3ccccc3)cc1)nn2C1CCC(CO)OC1 (stereo not shown) [Compound 53],20 to 100 nM
15,Nc1ncnc2c1c(-c1ccc(Oc3ccccc3)cc1F)nn2C1CCC(CO)OC1 (stereo not shown) [Compound 54],20 to 100 nM
16,Nc1nccn2c(C3CCC(CO)OC3)nc(-c3ccc(OCc4ccccc4)cc3)c12 (stereo not shown) [Compound 55],20 to 100 nM
17,Nc1nccn2c(C3CCC(CO)OC3)nc(-c3cnc(Nc4cccc(OC(F)(F)F)c4)nc3)c12 (stereo not shown) [Compound 56],> 1000 nM
18,Nc1nccc2c1c(-c1ccc(C(=O)Nc3ccccn3)cc1F)nn2C1CCC(CO)OC1 (stereo not shown) [Compound 57],20 to 100 nM
19,COc1cccc(NC(=O)c2ccc(-c3nc(C4CCC(CO)OC4)n4ccnc(N)c34)cc2)n1 (stereo not shown) [Compound 58],> 1000 nM
20,Nc1nccn2c(C3CCC(CO)OC3)nc(-c3ccc(Oc4cccnc4F)cc3)c12 (stereo not shown) [Compound 59],> 1000 nM

row,Compound,IC50
1,Nc1nccn2c(C3CCC(CO)OC3)nc(-c3ccc(C(=O)c4ccccc4Cl)cc3)c12 (stereo not shown) [Compound 62],20 to 100 nM
2,Nc1nccn2c(C3CCC(CO)OC3)nc(-c3ccc(C(O)c4ccccc4Cl)cc3)c12 (stereo not shown) [Compound 63],100 to 1000 nM
3,Nc1nccn2c(C3CCC(CO)OC3)nc(-c3ccc(C(=O)c4ccccc4O)cc3)c12 (stereo not shown) [Compound 66],20 to 100 nM
4,CNc1ccccc1C(=O)c1ccc(-c2nc(C3CCC(CO)OC3)n3ccnc(N)c23)cc1 (stereo not shown) [Compound 67],100 to 1000 nM
5,Nc1nccn2c(C3CCC(CO)OC3)nc(-c3ccc(C(=O)Nc4ccc(Cl)cn4)cc3)c12 (stereo not shown) [Compound 68],20 to 100 nM
6,Nc1nccn2c(C3CCC(CO)OC3)nc(-c3ccc(C(=O)Nc4ccc(F)cn4)cc3)c12 (stereo not shown) [Compound 69],20 to 100 nM
7,Nc1cccc(NC(=O)c2ccc(-c3nc(C4CCC(CO)OC4)n4ccnc(N)c34)cc2)n1 (stereo not shown) [Compound 71],20 to 100 nM
8,Nc1nccn2c(C3CCC(CO)OC3)nc(-c3ccc(C(=O)Nc4cccc(Br)n4)cc3)c12 (stereo not shown) [Compound 72],100 to 1000 nM
9,Nc1nccn2c(C3CCC(CO)OC3)nc(-c3ccc(C(=O)Nc4ccc(C(F)(F)F)cn4)cc3)c12 (stereo not shown) [Compound 73],100 to 1000 nM
10,COCCOc1ccc(-c2nc(C3CCC(CO)OC3)n3ccnc(N)c23)cc1 (stereo not shown) [Compound 74],> 1000 nM
11,COc1c(F)cccc1Oc1ccc(-c2nc(C3CCC(CO)OC3)n3ccnc(N)c23)cc1 (stereo not shown) [Compound 76],100 to 1000 nM
12,Cc1ccc(Oc2ccc(-c3nc(C4CCC(CO)OC4)n4ccnc(N)c34)cc2)c(F)c1 (stereo not shown) [Compound 77],20 to 100 nM
13,Cc1ccc(Oc2ccc(-c3nc(C4CCC(CO)OC4)n4ccnc(N)c34)cc2)cc1 (stereo not shown) [Compound 78],20 to 100 nM
14,COc1cccc(NC(=O)c2ccc(-c3nc(C4CCC(CO)OC4)n4ccnc(N)c34)cc2)c1F (stereo not shown) [Compound 79],> 1000 nM
15,Nc1nccn2c(C3CCC(CO)OC3)nc(-c3cnc(Oc4cccc(Cl)c4)nc3)c12 (stereo not shown) [Compound 81],> 1000 nM
16,COc1cccc(Oc2ccc(-c3nc(C4COC5C(O)COC45)n4ccnc(N)c34)cc2)c1F (stereo not shown) [Compound 82],20 to 100 nM
17,Nc1nccn2c(C3COC4C(O)COC34)nc(-c3ccc(C(=O)Nc4ccccn4)cc3)c12 (stereo not shown) [Compound 83],100 to 1000 nM
18,Nc1nccn2c(C3CCC(CO)OC3)nc(-c3ccc(Oc4ccc5c(c4F)OCC5)cc3)c12 (stereo not shown) [Compound 84],20 to 100 nM
19,Nc1nccn2c(C3CCC(CO)OC3)nc(-c3ccc(Oc4ccc5c(c4F)OCO5)cc3)c12 (stereo not shown) [Compound 85],100 to 1000 nM

# The next lines start with the values.
row,IC50,Compound
1,< 5 nM,"COc1cccc(Oc2ccc(-c3nc(C4CCC(CO)OC4)n4ccnc(N)c34)cc2)c1C#N (single isomer, unassigned) [Compound 89-P2]"
2,< 5 nM,"Nc1nccn2c(C3CCC(CO)OC3)nc(-c3ccc(C(=O)Nc4cc(C(F)(F)F)ccn4)cc3)c12 (single isomer, unassigned) [Compound 109-P2]"
3,5 to 20 nM,Nc1nccn2c(C3CC[C@H](CO)OC3)nc(-c3ccc(C(=O)Nc4ccccn4)cc3F)c12 (stereo partly shown) [Compound 1-A]
4,20 to 100 nM,Nc1ncc(Cl)n2c(C3CCC(CO)OC3)nc(-c3ccc(C(=O)Nc4ccccn4)cc3)c12 (stereo not shown) [Compound 3]
5,20 to 100 nM,Nc1ncc(Cl)n2c(C3CCC(CO)OC3)nc(-c3ccc(C(=O)Nc4ccccn4)cc3F)c12 (stereo not shown) [Compound 4]
6,< 5 nM,COc1cccc(Oc2ccc(-c3nc(C4CCC(CO)OC4)n4ccnc(N)c34)c(F)c2)c1F (stereo not shown) [Compound 10]
7,5 to 20 nM,Nc1nccn2c(C3CCC(CO)OC3)nc(-c3ccc(Oc4cccc(OC5CC5)c4F)cc3)c12 (stereo not shown) [Compound 15]
8,20 to 100 nM,Nc1nccn2c(C3CCC(CO)OC3)nc(-c3ccc(Oc4c(F)c(F)cc(F)c4F)cc3F)c12 (stereo not shown) [Compound 18]
9,5 to 20 nM,COc1c(F)ccc(Oc2ccc(-c3nc(C4CCC(CO)OC4)n4ccnc(N)c34)cc2)c1F (stereo not shown) [Compound 20]
10,20 to 100 nM,COc1cc(Oc2ccc(-c3nc(C4CCC(CO)OC4)n4ccnc(N)c34)cc2)ccc1F (stereo not shown) [Compound 21]
11,20 to 100 nM,Nc1nccn2c(C3CCC(CO)OC3)nc(-c3ccc(Oc4cccc(C5CC5)c4F)cc3)c12 (stereo not shown) [Compound 22]
12,20 to 100 nM,Nc1nccn2c(C3CCC(CO)OC3)nc(-c3ccc(Oc4ccc(C5CC5)cc4F)cc3)c12 (stereo not shown) [Compound 25]
13,20 to 100 nM,CC(O)(c1ccccc1)c1ccc(-c2nc(C3CCC(CO)OC3)n3ccnc(N)c23)cc1 (stereo not shown) [Compound 27]
14,5 to 20 nM,COc1cccc(Oc2ccc(-c3nn(C4CCC(CO)OC4)c4ncnc(N)c34)cc2)c1F (stereo not shown) [Compound 29]
15,5 to 20 nM,COc1cccc(Oc2ccc(-c3nn(C4CCC(CO)OC4)c4ccnc(N)c34)cc2)c1F (stereo not shown) [Compound 30]
16,5 to 20 nM,Nc1nccn2c(C3CCC(CO)OC3)nc(-c3ccc(Oc4ccccc4)cc3Cl)c12 (stereo not shown) [Compound 32]
17,5 to 20 nM,Nc1nccn2c(C34CCC(CO)(CC3)OC4)nc(-c3ccc(C(=O)Nc4ccccn4)cc3F)c12 [Compound 35]
18,5 to 20 nM,Nc1ncc(Cl)n2c(C34CCC(CO)(CC3)OC4)nc(-c3ccc(C(=O)Nc4ccccn4)cc3F)c12 [Compound 36]
19,< 5 nM,COc1cccc(Oc2ccc(-c3nc(C45CCC(CO)(CC4)OC5)n4ccnc(N)c34)cc2)c1F [Compound 37]
20,5 to 20 nM,COc1cccc(Oc2ccc(-c3nc(C45CCC(CO)(CC4)OC5)n4ccnc(N)c34)c(F)c2)c1F [Compound 38]
21,< 5 nM,COc1cccc(Oc2ccc(-c3nc(C45CCC(CO)(CC4)OC5)n4c(Cl)cnc(N)c34)cc2)c1F [Compound 39]
22,5 to 20 nM,Nc1nccn2c(C34COC(CO)(C3)C4)nc(-c3ccc(Oc4cccc(OC(F)(F)F)c4F)cc3F)c12 [Compound 40]
23,5 to 20 nM,Nc1ncc(Cl)n2c(C34COC(CO)(C3)C4)nc(-c3ccc(Oc4cccc(OC(F)(F)F)c4F)cc3F)c12 [Compound 41]
24,5 to 20 nM,COc1cccc(Oc2ccc(-c3nc(C45COC(CO)(C4)C5)n4ccnc(N)c34)cc2)c1F [Compound 45]
25,5 to 20 nM,COc1cccc(Oc2ccc(-c3nn(C4CCC(CO)OC4)c4c(Cl)cnc(N)c34)cc2)c1F (stereo not shown) [Compound 52]
26,5 to 20 nM,COc1cccc(C(=O)c2ccc(-c3nc(C4CCC(CO)OC4)n4ccnc(N)c34)cc2)c1F (stereo not shown) [Compound 61]
27,5 to 20 nM,Nc1ccccc1C(=O)c1ccc(-c2nc(C3CCC(CO)OC3)n3ccnc(N)c23)cc1 (stereo not shown) [Compound 65]
28,5 to 20 nM,Nc1nccn2c(C3CCC(CO)OC3)nc(-c3ccc(Oc4cccc(OC(F)F)c4F)cc3)c12 (stereo not shown) [Compound 75]
